Assay results from ChEMBL document CHEMBL1126446, “Acetylcholine releasing agents as cognition activators. Chemistry and pharmacology of a series of ureas” (1992).

Key:
Type in all cases: functional
Rattus norvegicus [1] = species: Rattus norvegicus; test: Compound was tested for the selective increase in K+ stimulated AcCh release in hippocampus at 100 uM
Rattus norvegicus [2] = species: Rattus norvegicus; test: Compound was tested for the selective increase in basal stimulated AcCh release in hippocampus at 100 uM
Mus musculus = species: Mus musculus; test: Compound was tested for the minimum effective dose required for the inhibition of cholinesterase in mouse water maze; settings: read-out: MED
Rattus norvegicus [3] = species: Rattus norvegicus; test: Compound was tested for the selective increase in K+ stimulated AcCh release in striatum; set-up: concentration or dose not given beside the values
Rattus norvegicus [4] = species: Rattus norvegicus; test: Compound was tested for the selective increase in K+ stimulated AcCh release in cortex at 100 uM
Rattus norvegicus [5] = species: Rattus norvegicus; test: Compound was tested for the selective increase in basal stimulated AcCh release in cortex at 100 uM
Rattus norvegicus [6] = species: Rattus norvegicus; test: Compound was tested for the selective increase in basal stimulated AcCh release in striatum; set-up: concentration or dose not given beside the values
Rattus norvegicus [7] = species: Rattus norvegicus; test: Compound was tested for the selective increase in basal stimulated AcCh release in striatum at 10 uM concentration
Rattus norvegicus [8] = species: Rattus norvegicus; test: Compound was tested for the selective increase in K+ stimulated AcCh release in cortex at 50 uM concentration
Rattus norvegicus [9] = species: Rattus norvegicus; test: Compound was tested for the selective increase in basal stimulated AcCh release in cortex at 100 uM concentration
Rattus norvegicus [10] = species: Rattus norvegicus; test: Compound was tested for the selective increase in K+ stimulated AcCh release in striatum 50 uM concentration
Rattus norvegicus [11] = species: Rattus norvegicus; test: Compound was tested for the selective increase in basal stimulated AcCh release in brain region of hippocampus at 100 uM concentration
Rattus norvegicus [12] = species: Rattus norvegicus; test: Compound was tested for the selective increase in basal stimulated AcCh release in brain region of hippocampus at 10 uM concentration
Rattus norvegicus [13] = species: Rattus norvegicus; test: Compound was tested for the selective increase in K+ stimulated AcCh release in brain region of hippocampus at 50 uM concentration
Rattus norvegicus [14] = species: Rattus norvegicus; test: Compound was tested for the selective increase in K+ stimulated AcCh release in brain region of hippocampus at 10 uM concentration
Rattus norvegicus [15] = species: Rattus norvegicus; test: Compound was tested for the selective increase in basal stimulated AcCh release in cortex at 1 uM concentration
Rattus norvegicus [16] = species: Rattus norvegicus; test: Compound was tested for the selective increase in basal stimulated AcCh release in cortex at 50 uM concentration
Rattus norvegicus [17] = species: Rattus norvegicus; test: Compound was tested for the selective increase in K+ stimulated AcCh release in brain region of hippocampus at 100 uM concentration
Rattus norvegicus [18] = species: Rattus norvegicus; test: Compound was tested for the selective increase in basal stimulated AcCh release in cortex at 10 uM concentration
Rattus norvegicus [19] = species: Rattus norvegicus; test: Compound was tested for the selective increase in K+ stimulated AcCh release in cortex at 100 uM concentration
Rattus norvegicus [20] = species: Rattus norvegicus; test: Compound was tested for the selective increase in K+ stimulated AcCh release in striatum 10 uM concentration
Rattus norvegicus [21] = species: Rattus norvegicus; test: Compound was tested for the selective increase in K+ stimulated AcCh release in cortex at 1 uM concentration
Rattus norvegicus [22] = species: Rattus norvegicus; test: Compound was tested for the selective increase in basal stimulated AcCh release in brain region of hippocampus at 1 uM concentration
Rattus norvegicus [23] = species: Rattus norvegicus; test: Compound was tested for the selective increase in basal stimulated AcCh release in striatum at 50 uM concentration
Rattus norvegicus [24] = species: Rattus norvegicus; test: Compound was tested for the selective increase in K+ stimulated AcCh release in striatum 100 uM concentration
Rattus norvegicus [25] = species: Rattus norvegicus; test: Compound was tested for the selective increase in basal stimulated AcCh release in striatum at 100 uM concentration
Rattus norvegicus [26] = species: Rattus norvegicus; test: Compound was tested for the selective increase in K+ stimulated AcCh release in brain region of hippocampus at 1 uM concentration
Rattus norvegicus [27] = species: Rattus norvegicus; test: Compound was tested for the selective increase in K+ stimulated AcCh release in striatum 1 uM concentration
Rattus norvegicus [28] = species: Rattus norvegicus; test: Compound was tested for the selective increase in basal stimulated AcCh release in brain region of hippocampus at 50 uM concentration
Rattus norvegicus [29] = species: Rattus norvegicus; test: Compound was tested for the selective increase in basal stimulated AcCh release in striatum at 1 uM concentration
Rattus norvegicus [30] = species: Rattus norvegicus; test: Compound was tested for the selective increase in K+ stimulated AcCh release in cortex at 10 uM concentration

Question: How did the Control (Rattus norvegicus [1]) turn out when `O=C(N(c1ccncc1)c1ccc(Cl)c(Cl)c1)N(C1CCCCC1)C1CCCCC1` was run?
Answer: 233.2%

Question: And the “AcCh release (% of control)” value (Rattus norvegicus [2])?
Answer: 335.2%

Question: With `Cc1ccc(N(C(=O)N(c2ccccc2)c2ccccc2)c2ccncc2)cc1` as the molecule, how does the minimal effective dose (Mus musculus) read?
Answer: > 32 mg/kg

Question: What about the Control (Rattus norvegicus [1]) of the same molecule?
Answer: 229%

Question: And the “AcCh release (% of control)” value (Rattus norvegicus [2])?
Answer: 186.4%

Question: With `O=C(N(c1ccccc1)c1ccccc1)N(c1ccccc1)c1ccccc1` as the molecule, how does the Control (Rattus norvegicus [3]) read?
Answer: 303.7%

Question: What about the Control (Rattus norvegicus [4]) of the same molecule?
Answer: 209.3%

Question: And the Control (Rattus norvegicus [1])?
Answer: 420.6%

Question: And the Control (Rattus norvegicus [5])?
Answer: 144.1%

Question: What about the Control (Rattus norvegicus [6]) of the same molecule?
Answer: 402.4%

Question: What about the “AcCh release (% of control)” value (Rattus norvegicus [2]) of the same molecule?
Answer: 137.8%

Question: For `NC(=O)N(c1ccccc1)c1ccccc1`, which Control (Rattus norvegicus [3]) is on record?
Answer: 98.9%

Question: And the Control (Rattus norvegicus [4])?
Answer: 111.4%

Question: And the Control (Rattus norvegicus [1])?
Answer: 128.7%

Question: And the Control (Rattus norvegicus [5])?
Answer: 105.1%

Question: And the Control (Rattus norvegicus [6])?
Answer: 105.9%

Question: And the “AcCh release (% of control)” value (Rattus norvegicus [2])?
Answer: 92.2%

Question: Which results are given for `O=C(Nc1ccccc1)N(c1ccccc1)c1ccccc1`?
Answer: Control (Rattus norvegicus [3]): 224%; Control (Rattus norvegicus [4]): 195.7%; Control (Rattus norvegicus [1]): 151.3%; Control (Rattus norvegicus [5]): 100.3%; Control (Rattus norvegicus [6]): 259.5%; AcCh release (% of control) (Rattus norvegicus [2]): 78%

Question: Which minimal effective dose (Mus musculus) does the source give for `O=C(N(c1ccccc1)c1ccccc1)N(c1ccncc1)c1ccc(Cl)c(Cl)c1` here?
Answer: 32 mg/kg

Question: What about the Control (Rattus norvegicus [1]) of the same molecule?
Answer: 46.6%

Question: What about the “AcCh release (% of control)” value (Rattus norvegicus [2]) of the same molecule?
Answer: 124.9%

Question: For `O=C(N(c1ccccc1)c1ccncc1)N(c1ccc(F)cc1)c1ccc(F)cc1`, which Control (Rattus norvegicus [1]) is on record?
Answer: 48.9%

Question: And the “AcCh release (% of control)” value (Rattus norvegicus [2])?
Answer: 115.6%

Question: With `O=C(N(c1ccccc1)c1ccccc1)N(c1ccncc1)c1ccc(Cl)cc1` as the molecule, how does the Control (Rattus norvegicus [1]) read?
Answer: 231.4%

Question: And the “AcCh release (% of control)” value (Rattus norvegicus [2])?
Answer: 159.2%

Question: How did the Control (Rattus norvegicus [3]) turn out when `O=C(N(c1ccccc1)c1ccccc1)N(c1ccccc1)c1ccncc1` was run?
Answer: 206.5%

Question: What about the Control (Rattus norvegicus [4]) of the same molecule?
Answer: 100%

Question: And the Control (Rattus norvegicus [1])?
Answer: 129.8%

Question: And the Control (Rattus norvegicus [5])?
Answer: 95.2%

Question: What about the Control (Rattus norvegicus [6]) of the same molecule?
Answer: 279.8%

Question: And the “AcCh release (% of control)” value (Rattus norvegicus [2])?
Answer: 95.4%

Question: What does the source list for `O=C(N(c1ccccc1)c1ccccc1)N(c1ccncc1)c1cccc(Cl)c1`?
Answer: Control (Rattus norvegicus [1]): 9.8%; AcCh release (% of control) (Rattus norvegicus [2]): 103.4%

Question: How did the Control (Rattus norvegicus [3]) turn out when `O=C(N(c1ccccc1)c1ccccc1)N(c1ccccc1)c1ccccn1` was run?
Answer: 266.6%

Question: And the Control (Rattus norvegicus [4])?
Answer: 158.8%

Question: And the Control (Rattus norvegicus [1])?
Answer: 318.3%

Question: And the Control (Rattus norvegicus [5])?
Answer: 130%

Question: What about the Control (Rattus norvegicus [6]) of the same molecule?
Answer: 232.1%

Question: What about the “AcCh release (% of control)” value (Rattus norvegicus [2]) of the same molecule?
Answer: 113.5%

Question: What does the source list for `Nc1ccncc1N` [AMIFAMPRIDINE]?
Answer: Control (Rattus norvegicus [7]): 164.2%; Control (Rattus norvegicus [8]): 103%; Control (Rattus norvegicus [9]): 120.8%; Control (Rattus norvegicus [10]): 118.5%; Control (Rattus norvegicus [11]): 127.8%; Control (Rattus norvegicus [12]): 114%; Control (Rattus norvegicus [13]): 119.6%; Control (Rattus norvegicus [14]): 100.8%; Control (Rattus norvegicus [15]): 104.2%; Control (Rattus norvegicus [16]): 116%; Control (Rattus norvegicus [17]): 106.9%; Control (Rattus norvegicus [18]): 113.8%; Control (Rattus norvegicus [19]): 110.8%; Control (Rattus norvegicus [20]): 111.5%; Control (Rattus norvegicus [21]): 93.5%; Control (Rattus norvegicus [22]): 106.2%; Control (Rattus norvegicus [23]): 180.9%; Control (Rattus norvegicus [24]): 105.9%; Control (Rattus norvegicus [25]): 224.8%; Control (Rattus norvegicus [26]): 121.9%; Control (Rattus norvegicus [27]): 88.8%; Control (Rattus norvegicus [28]): 119%; Control (Rattus norvegicus [29]): 129.3%; Control (Rattus norvegicus [30]): 108.1%

Question: Which results are given for `Nc1ccncc1` [DALFAMPRIDINE]?
Answer: Control (Rattus norvegicus [7]): 131.5%; Control (Rattus norvegicus [8]): 99.9%; Control (Rattus norvegicus [9]): 118%; Control (Rattus norvegicus [11]): 128.1%; Control (Rattus norvegicus [12]): 116.8%; Control (Rattus norvegicus [14]): 96.5%; Control (Rattus norvegicus [15]): 96.2%; Control (Rattus norvegicus [16]): 112.2%; Control (Rattus norvegicus [17]): 105%; Control (Rattus norvegicus [18]): 102.4%; Control (Rattus norvegicus [19]): 96.3%; Control (Rattus norvegicus [20]): 105.5%; Control (Rattus norvegicus [21]): 96.7%; Control (Rattus norvegicus [22]): 112.7%; Control (Rattus norvegicus [24]): 131.6%; Control (Rattus norvegicus [25]): 170.9%; Control (Rattus norvegicus [26]): 97.3%; Control (Rattus norvegicus [27]): 94%; Control (Rattus norvegicus [29]): 107.6%; Control (Rattus norvegicus [30]): 104%

Question: What does the source list for `O=C(Nc1ccccc1)Nc1ccccc1` [DIPHENYLUREA]?
Answer: Control (Rattus norvegicus [3]): 98.8%; Control (Rattus norvegicus [4]): 125.8%; Control (Rattus norvegicus [1]): 138.6%; Control (Rattus norvegicus [5]): 101.9%; Control (Rattus norvegicus [6]): 97.1%; AcCh release (% of control) (Rattus norvegicus [2]): 89%

Question: With `NC(=O)Nc1ccccc1` [PHENYLUREA] as the molecule, how does the Control (Rattus norvegicus [3]) read?
Answer: 99.8%

Question: And the Control (Rattus norvegicus [4])?
Answer: 116.4%

Question: And the Control (Rattus norvegicus [1])?
Answer: 107.9%

Question: What about the Control (Rattus norvegicus [5]) of the same molecule?
Answer: 105.8%

Question: What about the Control (Rattus norvegicus [6]) of the same molecule?
Answer: 99.3%

Question: What about the “AcCh release (% of control)” value (Rattus norvegicus [2]) of the same molecule?
Answer: 94.1%
